Source: EP0734259B1, “Use of piperidine compounds in the treatment of schizophrenia” (NOVO NORDISK A/S, priority 1993, dated 1995)
pIC50: −log10 of the molar value. Counter-ions that a name gives are not always drawn.

Experiments:
[1] = system: rats; assay: Conditioned avoidance behavior in rats; assay type: in vivo, rat; details: 3.0 mg/kg s.c. 30 min before the session, active if % avoidance reduced to at least 50%
Description: In a conditioned avoidance test, animals learn to respond during a conditioned stimulus in order to avoid mild shock presentation. A response during the conditioned stimulus is termed an avoidance respone, a response during shock is termed an escape response; a response failure is when the animal fails to respond during either the conditioned stimlus or the shock presentation and is indicative of motor impairment. Animals rapidly learn to avoid 99% of the time. Antipsychotic drugs decrease the percentage of avoidance responses without interfering with the ability of the animal to respond since the animals do emit escape responses. The percentage of response failures is considered a measure of motor impairment.
Rats were required to press a response lever in an experimental chamber in order to avoid or escape foot-shock. Each experimental session consisted of 50 trials. During each trial, the chamber was illuminated and a tone presented for a maximum of 10 sec. A response during the tone immediately terminated the tone and the houselight, ending the trial. In the absence of a response during the tone alone, tone+foot-shock (2.0 mA) was presented for a maximum of 10 sec. A response during shock presentation immediately terminated the shock, the tone and the houselight, ending the trial.
For drug screening, a dose of 3.0 mg/kg was administered s.c. 30 min before the start of the experimental session. A drug was considered active if it reduced the % avoidance responding to at least 50% without producing greater than 50% response failures. For active drugs, a dose-response curve was subsequently determined.

[2] = target: muscarinic receptors; assay: ^3H-oxotremorine-M binding assay (inhibition of binding to cerebral cortical membranes); details: 3 nM ^3H-oxotremorine-M, rat cerebral cortical membranes, 15 minutes at 25°C, read-out: Inhibition of ^3H-Oxo
Protocol: The affinity of the compounds for the muscarinic receptors was determined using the non-selective agonist ligand, ^3H-oxotremorine-M. Birdsdall N.J.M., Hulme E.C., and Burgen A.S.V., "The Character of Muscarinic Receptors in Different Regions of the Rat Brain", 207 Proc. Roy. Soc. 1 (London, Series B, 1980). Each compound was tested to determine the affinity of the compound for the muscarinic receptors using the following procedure.
For each in vitro binding, male Sprague-Dawley (Harlan Sprague-Dawley, Indianapolis, IN) rats weighing from about 100 to about 150 grams each were sacrificed by decapitation. The brains were quickly removed and the cerebral cortex were dissected from the brain. The cerebral cortex tissue was homogenized in 10 volumes of 0.32 M sucrose and […] at about 1000 x g. The supernatant was centrifuged at about 12,000 x g for about 10 minutes and the resulting pellet was resuspended in 20 mM tris-CI, pH 7.4. The resuspended pellet was centrifuged again for about 10 minutes at about 50,000 x g. The resulting homogenate was preincubated for about 10 minutes at about 25°C and centrifuged again for about 10 minutes at about 50,000 x g. The pellet was resuspended at 1 gram of pellet per 3 ml of buffer and frozen at about -80°C until used.
The aforementioned homogenates mixture was incubated for about 15 minutes at about 25°C and then the homogenates were filtered through glass filters (Whatman, GF/C) with vacuum. The filters were washed 3 times with about 2 ml of cold tris-CI buffer, and placed in scintillation vials containing about 10 ml of scintillation fluid (Ready Protein+, Beckman, Fullerton, CA). Radioactivity trapped on the filters was determined by liquid scintillation spectrometry. Nonspecific binding was determined using 1 µM atropine. […] DeLean, A. et al. Am. J. Physiol., 235, (1978).

| pIC50 [2] | Structure (SMILES) | Conditioned Avoidance % Avoidance Responses [1] [%] |
| --- | --- | --- |
| 8.72 | CCSc1nsnc1C1=CCCN(C)C1.O=C(O)C(=O)O [Compound 65, 3-(3-Ethylthio-1,2,5-thiadiazol-4-yl)-1,2,5,6-tetrahydro-1-methylpyridine oxalate] | 69 |
| 8.80 | CCCOc1nsnc1C1=CCCN(C)C1.O=C(O)C(=O)O [Compound 3, 1,2,5,6-Tetrahydro-1-methyl-3-(3-propoxy-1,2,5-thiadiazol-4-yl)pyridine oxalate] | 71 |
| 8.92 | CCCSc1nsnc1C1=CCCNC1.O=C(O)C(=O)O [Compound 217, 3-(3-Propylthio-1,2,5-thiadiazol-4-yl)-1,2,5,6-tetrahydropyridine oxalate] | 30 |
| 8.13 | Cl.FC(F)(F)COc1nsnc1C1=CCCNC1 [Compound 223, 3-(3-(2,2,2-Trifluoroethoxy)-1,2,5-thiadiazol-4-yl)-1,2,5,6-tetrahydropyridine hydrochloride] | 31 |
| 8.46 | CCCCSc1nsnc1C1=CCCNC1.O=C(O)C(=O)O [Compound 218, 3-(3-Butylthio-1,2,5-thiadiazol-4-yl)-1,2,5,6-tetrahydropyridine oxalate] | 39 |
| 7.98 | CCOc1nsnc1C1=CCCNC1.Cl [Compound 215, 3-(3-Ethoxy-1,2,5-thiadiazol-4-yl)-1,2,5,6-tetrahydropyridine hydrochloride] | 61 |
| 9.05 | CCCSc1nsnc1C1=CCCN(C)C1.O=C(O)C(=O)O [Compound 47, 3-(3-Propylthio-1,2,5-thiadiazol-4-yl)-1,2,5,6-tetrahydro-1-methylpyridine oxalate] | 49 |
| 9.38 | Cl.FC(F)(F)CSc1nsnc1C1=CCCNC1 [Compound 222, 3-(3-(2,2,2-Trifluoroethylthio)-1,2,5-thiadiazol-4-yl)-1,2,5,6-tetrahydropyridine hydrochloride] | 0 |
| 8.64 | CSc1nsnc1C1=CCCN(C)C1.O=C(O)C(=O)O [Compound 49, 3-(3-Methylthio-1,2,5-thiadiazol-4-yl)-1,2,5,6-tetrahydro-1-methylpyridine oxalate] | 37 |
| 8.32 | CCCCCSc1nsnc1C1=CCCN(C)C1.O=C(O)C(=O)O [Compound 66, 3-(3-Pentylthio-1,2,5-thiadiazol-4-yl)-1,2,5,6-tetrahydro-1-methylpyridine oxalate] | 87 |
| 8.24 | CCOc1nsnc1C1=CCCN(C)C1.O=C(O)C(=O)O [Compound 2, 3-(3-Ethoxy-1,2,5-thiadiazol-4-yl)-1,2,5,6-tetrahydro-1-methylpyridine oxalate] | 70 |
| 8.24 | CCCCCSc1nsnc1C1=CCCNC1.O=C(O)C(=O)O [Compound 219, 3-(3-Pentylthio-1,2,5-thiadiazol-4-yl)-1,2,5,6-tetrahydropyridine oxalate] | 79 |
| 8.77 | CCCCSc1nsnc1C1=CCCN(C)C1.O=C(O)C(=O)O [Compound 48, 3-(3-Butylthio-1,2,5-thiadiazol-4-yl)-1,2,5,6-tetrahydro-1-methylpyridine oxalate] | 57 |
| 8.19 | CCSc1nsnc1C1=CCCNC1.Cl [Compound 216, 3-(3-Ethylthio-1,2,5-thiadiazol-4-yl)-1,2,5,6-tetrahydropyridine hydrochloride] | 12 |
| 7.66 | COc1nsnc1C1=CCCN(C)C1.O=C(O)C(=O)O [Compound 1, 1,2,5,6-Tetrahydro-3-(3-methoxy-1,2,5-thiadiazol-4-yl)-1-methylpyridine oxalate] | 97 |

| Structure (SMILES) | pIC50 [2] | Conditioned Avoidance % Avoidance Responses [1] [%] |
| --- | --- | --- |
| CCCCOc1nsnc1C1=CCCN(C)C1.O=C(O)C(=O)O [Compound 4, 3-(3-Butoxy-1,2,5-thiadiazol-4-yl)-1,2,5,6-tetrahydro-1-methylpyridine oxalate] | 8.70 | 74 |
| CN1CCC=C(c2nsnc2SCCSc2cccs2)C1 [Compound 228, 3-(3-(2-(2-Thienylthio)ethylthio))-1,2,5-thiadiazol-4-yl)-1,2,5,6-tetrahydro-1-methylpyridine oxalate] | 9.22 | 92 |
| CCCCCCSc1nsnc1C1=CCCNC1 [Compound 220, 3-(3-Hexylthio-1,2,5-thiadiazol-4-yl-1,2,5,6-tetrahydropyridine oxalate] | 8.52 | 88 |
